Source: patent publication US20260317384A1, “SMALL MOLECULE HUMANIN MIMETICS” (The Regents of the University Of California, priority 2023, published 2026)
Peptide text beside a SMILES is read from it. * marks the point of attachment. Cbz = O=C(OCc1ccccc1)*

Assays:
gp130 receptor = molecular target: T1, gp130 receptor (Homo sapiens, UniProt P40189); assay: p-gp130 (p-Tyr) ELISA, HTS validation and dose response in U87-MG cells; assay type: cell-based; details: for p-gp130 (p-Tyr) dose response activity: dose response of validated hits, FIG. 4; for activation of gp130 receptor / increase of p-gp130: validation testing, truncated humanin peptides
T1 construct: express more than 10 times more endogenous gp130; endogenous in cells; host or cells: U87-MG
T1 sequence (P40189 23-918): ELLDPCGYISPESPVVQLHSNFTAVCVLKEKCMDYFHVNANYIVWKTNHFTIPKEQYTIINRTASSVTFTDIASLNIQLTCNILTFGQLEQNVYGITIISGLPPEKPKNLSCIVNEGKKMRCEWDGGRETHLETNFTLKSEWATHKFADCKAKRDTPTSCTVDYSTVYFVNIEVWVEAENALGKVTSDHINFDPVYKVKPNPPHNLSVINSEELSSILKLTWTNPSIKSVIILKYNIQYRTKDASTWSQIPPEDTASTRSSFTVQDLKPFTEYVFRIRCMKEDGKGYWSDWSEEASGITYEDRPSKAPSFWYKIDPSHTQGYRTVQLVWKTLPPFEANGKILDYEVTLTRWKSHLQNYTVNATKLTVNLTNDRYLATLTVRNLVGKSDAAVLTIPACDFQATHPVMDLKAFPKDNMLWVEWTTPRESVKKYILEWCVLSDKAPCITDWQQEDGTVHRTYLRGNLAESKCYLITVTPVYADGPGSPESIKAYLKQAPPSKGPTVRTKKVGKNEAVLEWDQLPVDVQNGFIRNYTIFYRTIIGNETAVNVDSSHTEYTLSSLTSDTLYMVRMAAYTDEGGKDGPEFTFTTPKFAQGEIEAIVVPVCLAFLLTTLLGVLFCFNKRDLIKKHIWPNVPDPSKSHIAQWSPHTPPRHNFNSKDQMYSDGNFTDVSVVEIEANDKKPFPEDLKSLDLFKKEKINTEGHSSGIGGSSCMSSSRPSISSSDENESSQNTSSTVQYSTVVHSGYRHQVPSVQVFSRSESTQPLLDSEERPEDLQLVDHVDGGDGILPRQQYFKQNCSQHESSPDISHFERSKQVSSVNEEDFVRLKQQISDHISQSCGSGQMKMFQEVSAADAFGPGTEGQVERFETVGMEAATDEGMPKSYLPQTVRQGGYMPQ
Description: (§1) An ELISA assay for the evaluation of the p-gp130 levels was developed. This was a commercial ELISA—DuoSet ELISA from R&D systems (cat #DYC3407-2) and detected the tyrosine phosphorylation of gp130. […] In addition, a commercially available p-AKT (1,2,3) AlphaLISA kit was used (PE cat #ALSU-PAKT-B-HV) for the HTS assay.
(§2) Small molecules that act as HN mimetics represent a new class of AD therapeutics. Through screening, validated hits that increase both p-gp-130 and p-Akt levels were identified. Human glioblastoma cells were used, U87-MG. Several hits that enhance p-gp 130 were identified as well as several compounds that can increase p-AKT (FIG. 3).
(§3) Into a 96 well plate was added 99 μL of warm DMEM/F12 without FBS, then 1 uL of compounds at 1 mM were loaded into the96 well plate. These generated the compounds at 2×. Into a 96 well plate was added IL6/IL6R solution to achieve 6.6×10−4 mg/mL and 3.3×10−4 mg/mL respectively, this is 2× concentration. For this, primary EL6 stock (0.1 mg/mL) was diluted150-fold and IL6R stock (0.1 mg/mL) 300-fold to treat cells with final concentration of 6.6×10−4 mg/mL and 3.3×10−4 mg/mL respectively. 10 ml of Sample Diluent Concentrate 2 (2X)(Part #895891/DYC002)+10 ml ddH2O+200 ul of 100 mM activated Na3VO4 (aliquots at −20C)+20 ul of 10 mg/ml aprotinin (stock at 4C)+20 ul of 10 mg/ml leupeptin (aliquots at −20C)+200 ul PIC-protected from light. Lysis buffer containing 1% NP-40 Alternative, 20 mM Tris (pH 8.0), 137 mM NaCl, 10% glycerol, 2 mM EDTA, 1 mM activated sodium orthovanadate, 10 μg/mL Aprotinin, 10 μg/mL Leupeptin. Placed on ice. Removed the media from the cell plate and add 50 μL of DMEM/F12 without FBS. Then, added 50 μL of the compounds or positive control IL6/IL6R at 2× into the cell plate using the multichannel (FIG. 7). Allowed the treatment to take place for 10 minutes in the incubator at 37° C. and 5% CO2. Cells were lysed with 130 μL of ice-cold lysis buffer. Placed cells on ice for 15 min, then in the −80° C. overnight. Next, we prepared the ELISA plate by warming coating buffer to RT. 12 strips were coated with capture antibody. For this: 121 μL of 180 μg/mL of capture antibody (R&D DYC3407-2) was added into 21.48 mL of coating buffer. 100 μL of this solution was added to each well, covered with a lead and incubated at RT overnight and then conducted the ELISA assay using the manufacture outlined protocol. The cell lysate from the HTS was prepared using the AlphaLISA buffer to measure levels of p-AKT after compound treatment.

p-gp130 and p-Akt = assay: HN mimetic activity (p-gp130 and p-Akt); assay type: cell-based, human
Description: as §1, §2
as §3, with “For this: 121 μL of 180 μg/mL of capture antibody (R&D DYC3407-2) was added into 21.48 mL of coating buffer. 100 μL of this solution was added to each well, covered with a lead and incubated at RT overnight and then conducted the ELISA assay using the manufacture outlined protocol. The cell lysate from the HTS was prepared using the AlphaLISA buffer to measure levels of p-AKT after compound treatment.” left out

p-AKT = p-AKT AlphaLISA in U87-MG cells; assay type: cell-based, human; design: dose or concentration left out as unconfirmed; details: FIG. 2D
Description: as §1, §2
Into a 96 well plate was added 99 μL of warm DMEM/F12 without FBS, then 1 uL of compounds at 1 mM were loaded into the96 well plate. These generated the compounds at 2×. Into a 96 well plate was added IL6/IL6R solution to achieve 6.6×10−4 mg/mL and 3.3×10−4 mg/mL respectively, this is 2× concentration. For this, primary EL6 stock (0.1 mg/mL) was diluted150-fold and IL6R stock (0.1 mg/mL) 300-fold to treat cells with final concentration of 6.6×10−4 mg/mL and 3.3×10−4 mg/mL respectively. 10 ml of Sample Diluent Concentrate 2 (2X)(Part #895891/DYC002)+10 ml ddH2O+200 ul of 100 mM activated Na3VO4 (aliquots at −20C)+20 ul of 10 mg/ml aprotinin (stock at 4C)+20 ul of 10 mg/ml leupeptin (aliquots at −20C)+200 ul PIC-protected from light. […]

p-gp130 = p-gp130 AlphaLISA in U87-MG cells; assay type: cell-based, human; details: 30 μM for 3 hours, FIG. 2D
Description: FIG. 2. Development of p-gp 130 and gp130 AlphaLISA assays (A) Evaluation of p-gp 130 and gp 130 levels in U87-MG and SH-SY5Y cells after treatment with compound 2 by immunoblotting. (B) Principle of AlphaLISA assay. (C) Data of developed gp-130 AlphaLISA assay. Analyte is recombinant gp130 (EC domain).
Eight different antibodies (more than 20 combinations) were tested in a course of p-gp130 and gp130 AlphaLISA development. The principle of the AlphaLISA assay is depicted in FIG. 2B. […] Lysate buffer composition and treatment conditions have been optimized.

| Compound | p-gp130 (p-Tyr) dose response activity (gp130 receptor) | HN mimetic activity (p-gp130 and p-Akt) | also measured |
| --- | --- | --- | --- |
| CCC(=O)Nc1ccc2nc(C)n(-c3cccc(Cl)c3)c(=O)c2c1 [DDL-813] | most potent showing submicromolar activity | – | – |
| CC[C@H](C)[C@H](NC(=O)[C@H](CCC(=O)O)NC(=O)CNC(=O)[C@@H](N)[C@@H](C)O)C(=O)O [DDL-842, NH2-Thr-Gly-Glu-Ile-COOH] (H-TGEI-OH) | – | weak HN mimetic activity | – |
| C#CCSC[C@H](N)C(=O)O [S-propargyl-cyctein (SPRC), S-propargyl-cyctein] | – | – | p-AKT AlphaLISA signal (p-AKT): significant increaste; p-gp130 AlphaLISA signal (p-gp130): significant increaste |
| Cbz-Thr-Ser-NH2 [DDL-841] | – | increased HN mimetic activity | – |
| H-TGEINLPVK-OH [DDL-815, NH2-Thr-Gly-Glu-Ile-Asn-Leu-Pro-Val-Lys-COOH] | – | weaker HN mimetic activity through lower p-gp130 and p-Akt | – |
| H-TSEINLPVK-OH [DDL-814, NH2-Thr-Ser-Glu-Ile-Asn-Leu-Pro-Val-Lys-COOH] | good activity | – | activation of gp130 receptor / increase of p-gp130 (gp130 receptor): activate the gp130 receptor; activation of gp130 receptor / increase of p-gp130 (gp130 receptor; listed as P3): increased p-gp-130 |
